Active and inactive are the calls of the source.
What was measured:
Type in all cases: functional
[1] = molecular target: T1, Multidrug resistance protein CDR2 (Candida albicans (strain SC5314 / ATCC MYA-2876) (Yeast), UniProt P78595); test: inhibition of Nile Red efflux via Candida CDR2 – S. cerevisiae AD1-8u, singleplex, Cherry Pick1 hits, dose response (AID 588604)
T1 sequence (P78595 whole entry): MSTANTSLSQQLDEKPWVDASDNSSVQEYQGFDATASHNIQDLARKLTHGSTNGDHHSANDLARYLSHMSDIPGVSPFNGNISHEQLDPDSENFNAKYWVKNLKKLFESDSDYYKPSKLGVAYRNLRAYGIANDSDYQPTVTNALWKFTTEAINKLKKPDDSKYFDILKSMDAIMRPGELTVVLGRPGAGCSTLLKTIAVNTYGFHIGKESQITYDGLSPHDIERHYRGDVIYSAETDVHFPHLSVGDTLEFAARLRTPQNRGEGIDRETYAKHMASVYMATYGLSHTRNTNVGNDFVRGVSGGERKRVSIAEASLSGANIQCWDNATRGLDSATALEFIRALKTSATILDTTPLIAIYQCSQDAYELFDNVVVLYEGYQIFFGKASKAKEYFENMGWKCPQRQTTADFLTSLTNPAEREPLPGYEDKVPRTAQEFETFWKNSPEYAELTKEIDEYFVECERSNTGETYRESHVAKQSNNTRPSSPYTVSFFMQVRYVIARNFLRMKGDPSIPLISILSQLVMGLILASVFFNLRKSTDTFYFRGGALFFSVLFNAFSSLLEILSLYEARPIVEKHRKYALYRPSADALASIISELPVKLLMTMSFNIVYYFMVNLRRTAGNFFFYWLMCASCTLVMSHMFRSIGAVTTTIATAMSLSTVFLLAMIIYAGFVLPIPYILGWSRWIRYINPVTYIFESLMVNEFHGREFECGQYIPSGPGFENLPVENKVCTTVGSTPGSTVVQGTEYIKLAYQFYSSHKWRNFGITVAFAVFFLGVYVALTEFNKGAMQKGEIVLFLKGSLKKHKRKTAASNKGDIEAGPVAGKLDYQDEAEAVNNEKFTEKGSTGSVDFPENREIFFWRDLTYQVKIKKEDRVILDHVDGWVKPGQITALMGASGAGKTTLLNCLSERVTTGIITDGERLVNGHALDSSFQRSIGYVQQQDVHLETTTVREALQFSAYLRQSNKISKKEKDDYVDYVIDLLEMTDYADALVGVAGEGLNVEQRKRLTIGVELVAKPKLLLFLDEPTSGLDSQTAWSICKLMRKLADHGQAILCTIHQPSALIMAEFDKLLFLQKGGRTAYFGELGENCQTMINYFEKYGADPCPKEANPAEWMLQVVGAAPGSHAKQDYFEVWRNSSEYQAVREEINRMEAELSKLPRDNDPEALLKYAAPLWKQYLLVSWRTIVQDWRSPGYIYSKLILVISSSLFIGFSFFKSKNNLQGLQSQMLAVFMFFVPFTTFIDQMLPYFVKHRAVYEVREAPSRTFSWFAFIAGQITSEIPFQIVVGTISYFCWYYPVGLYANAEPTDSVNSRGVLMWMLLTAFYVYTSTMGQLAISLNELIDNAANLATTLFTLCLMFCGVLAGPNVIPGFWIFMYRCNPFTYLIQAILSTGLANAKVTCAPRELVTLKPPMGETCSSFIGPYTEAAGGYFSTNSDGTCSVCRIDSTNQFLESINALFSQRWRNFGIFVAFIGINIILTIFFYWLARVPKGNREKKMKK

[2] = molecular target: Benomyl/methotrexate resistance protein (Candida albicans, UniProt P28873); test: Candida albicans Mdr1 pump inhibition curves – singleplex, Cherry Pick1 hits, dose response (AID 588608)
Sequence of Benomyl/methotrexate resistance protein (P28873 whole entry): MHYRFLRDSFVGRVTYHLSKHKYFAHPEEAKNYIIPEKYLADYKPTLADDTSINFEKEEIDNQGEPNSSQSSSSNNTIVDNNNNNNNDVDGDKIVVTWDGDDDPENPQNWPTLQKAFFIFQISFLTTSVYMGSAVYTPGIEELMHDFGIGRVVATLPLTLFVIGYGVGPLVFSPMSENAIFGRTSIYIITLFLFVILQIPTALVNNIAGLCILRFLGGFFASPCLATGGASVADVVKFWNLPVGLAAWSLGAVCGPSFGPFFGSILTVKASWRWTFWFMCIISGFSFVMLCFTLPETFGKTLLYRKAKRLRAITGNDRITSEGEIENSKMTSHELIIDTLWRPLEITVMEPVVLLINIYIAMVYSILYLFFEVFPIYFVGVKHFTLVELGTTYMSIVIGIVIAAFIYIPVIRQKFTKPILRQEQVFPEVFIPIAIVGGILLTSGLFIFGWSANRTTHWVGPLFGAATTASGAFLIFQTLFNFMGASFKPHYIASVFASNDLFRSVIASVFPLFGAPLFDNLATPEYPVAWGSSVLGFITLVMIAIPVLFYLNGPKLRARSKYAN

[3] = molecular target: T1, Multidrug resistance protein CDR2; test: blockers of Nile Red efflux by Candida CDR2 – S. cerevisiae AD1-8u, singleplex, Cherry Pick2 set, dose response (AID 623994); details: read-out: EC50_MICROM
[4] = molecular target: T2, Multidrug resistance protein CDR1 (Candida albicans, UniProt P43071); test: inhibition of Nile Red efflux via Candida CDR1 – S. cerevisiae AD1-8u, singleplex, Cherry Pick1 hits, dose response (AID 588606)
T2 sequence (P43071 whole entry, looked up): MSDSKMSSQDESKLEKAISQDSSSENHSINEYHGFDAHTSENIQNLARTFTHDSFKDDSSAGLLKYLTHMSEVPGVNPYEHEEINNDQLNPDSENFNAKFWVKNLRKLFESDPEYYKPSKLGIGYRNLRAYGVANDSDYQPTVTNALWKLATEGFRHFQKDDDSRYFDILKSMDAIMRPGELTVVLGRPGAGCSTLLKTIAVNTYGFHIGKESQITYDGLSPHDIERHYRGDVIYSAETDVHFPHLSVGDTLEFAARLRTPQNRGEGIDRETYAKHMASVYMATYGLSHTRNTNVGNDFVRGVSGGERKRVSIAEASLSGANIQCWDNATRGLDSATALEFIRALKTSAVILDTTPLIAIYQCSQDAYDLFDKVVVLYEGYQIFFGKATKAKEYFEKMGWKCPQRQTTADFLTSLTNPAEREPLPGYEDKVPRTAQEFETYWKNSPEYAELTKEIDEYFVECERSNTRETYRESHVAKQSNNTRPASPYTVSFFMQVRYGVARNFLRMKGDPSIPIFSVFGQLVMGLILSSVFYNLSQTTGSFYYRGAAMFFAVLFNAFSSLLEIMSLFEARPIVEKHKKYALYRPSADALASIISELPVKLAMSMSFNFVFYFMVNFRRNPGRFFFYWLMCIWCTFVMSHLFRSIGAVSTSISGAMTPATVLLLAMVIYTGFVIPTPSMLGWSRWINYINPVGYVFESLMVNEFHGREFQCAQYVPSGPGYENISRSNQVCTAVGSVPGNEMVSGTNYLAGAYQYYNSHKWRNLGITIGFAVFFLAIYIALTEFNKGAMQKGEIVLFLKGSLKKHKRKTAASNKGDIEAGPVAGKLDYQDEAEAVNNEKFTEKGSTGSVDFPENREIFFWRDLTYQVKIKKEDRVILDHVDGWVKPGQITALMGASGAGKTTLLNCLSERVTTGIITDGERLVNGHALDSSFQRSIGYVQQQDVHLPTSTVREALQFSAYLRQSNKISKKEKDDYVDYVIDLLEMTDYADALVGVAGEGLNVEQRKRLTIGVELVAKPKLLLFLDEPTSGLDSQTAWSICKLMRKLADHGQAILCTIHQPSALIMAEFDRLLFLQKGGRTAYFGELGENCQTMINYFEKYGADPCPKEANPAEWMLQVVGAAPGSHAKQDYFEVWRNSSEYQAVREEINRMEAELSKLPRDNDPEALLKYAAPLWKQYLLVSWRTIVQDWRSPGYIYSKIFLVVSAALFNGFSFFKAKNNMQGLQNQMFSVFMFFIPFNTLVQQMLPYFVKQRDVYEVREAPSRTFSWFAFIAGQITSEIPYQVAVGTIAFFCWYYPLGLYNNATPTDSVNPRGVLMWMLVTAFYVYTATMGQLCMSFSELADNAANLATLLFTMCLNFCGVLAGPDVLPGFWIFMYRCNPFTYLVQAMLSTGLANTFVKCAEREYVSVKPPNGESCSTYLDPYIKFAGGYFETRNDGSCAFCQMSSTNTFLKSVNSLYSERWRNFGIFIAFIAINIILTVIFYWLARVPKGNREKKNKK

[5] = molecular target: T2, Multidrug resistance protein CDR1; test: Candida albicans Cdr1 pump inhibition curves – singleplex, Cherry Pick2 set, dose response (AID 623996); details: read-out: EC50_MICROM
[6] = molecular target: T3, High affinity choline transporter 1 (Homo sapiens, UniProt Q9GZV3); test: human choline transporter blockers, potency – cell-based, 10-point CRC, membrane potential dye, dose response (AID 588401);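 note: membrane potential dye fluorescence of choline-evoked depolarization via CHT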
T3 sequence (Q9GZV3 whole entry): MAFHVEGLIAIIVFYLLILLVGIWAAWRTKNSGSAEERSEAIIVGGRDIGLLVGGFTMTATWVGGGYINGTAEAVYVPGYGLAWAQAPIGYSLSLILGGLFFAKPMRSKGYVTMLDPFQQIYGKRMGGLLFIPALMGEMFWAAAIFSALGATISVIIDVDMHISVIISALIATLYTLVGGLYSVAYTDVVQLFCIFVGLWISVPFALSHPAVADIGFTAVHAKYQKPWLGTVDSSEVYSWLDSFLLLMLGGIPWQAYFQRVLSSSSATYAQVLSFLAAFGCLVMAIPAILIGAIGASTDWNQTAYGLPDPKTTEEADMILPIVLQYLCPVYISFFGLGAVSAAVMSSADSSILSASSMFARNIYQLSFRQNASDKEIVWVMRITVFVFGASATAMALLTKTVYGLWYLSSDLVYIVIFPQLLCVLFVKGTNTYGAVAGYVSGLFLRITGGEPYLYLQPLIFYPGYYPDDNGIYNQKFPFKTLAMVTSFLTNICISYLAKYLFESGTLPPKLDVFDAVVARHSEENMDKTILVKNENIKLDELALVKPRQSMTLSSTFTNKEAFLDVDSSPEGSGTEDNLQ

[7] = molecular target: T3, High affinity choline transporter 1; test: human choline transporter blockers, potency – cell-based, 5-point CRC, membrane potential dye, dose response (AID 504840)
[8] = molecular target: Melanin-concentrating hormone receptor 1 (Homo sapiens, UniProt Q99705); test: Late-stage fluorescence-based counterscreen for antagonists of the G-protein coupled receptor 7 (GPR7): cell-based dose response assay to identify antagonists of the melanin-concentrating hormone receptor 1 (MCHR1) Set 6.
Sequence of Melanin-concentrating hormone receptor 1 (Q99705 whole entry): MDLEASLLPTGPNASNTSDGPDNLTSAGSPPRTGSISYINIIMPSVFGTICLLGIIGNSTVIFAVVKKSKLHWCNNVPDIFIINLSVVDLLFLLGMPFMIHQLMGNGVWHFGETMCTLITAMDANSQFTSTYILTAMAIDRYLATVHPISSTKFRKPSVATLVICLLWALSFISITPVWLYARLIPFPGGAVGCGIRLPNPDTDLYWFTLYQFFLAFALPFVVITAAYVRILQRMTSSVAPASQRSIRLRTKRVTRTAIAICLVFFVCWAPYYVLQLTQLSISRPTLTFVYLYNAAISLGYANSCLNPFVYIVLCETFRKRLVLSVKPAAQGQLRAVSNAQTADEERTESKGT

[9] = molecular target: Neuropeptides B/W receptor type 1 (Homo sapiens, UniProt P48145); test: human NPBW1 receptor blockade, IC50 – cell-based, fluorescence, dose response, set 6, late-stage follow-up (AID 588583)
Sequence of Neuropeptides B/W receptor type 1 (P48145 whole entry): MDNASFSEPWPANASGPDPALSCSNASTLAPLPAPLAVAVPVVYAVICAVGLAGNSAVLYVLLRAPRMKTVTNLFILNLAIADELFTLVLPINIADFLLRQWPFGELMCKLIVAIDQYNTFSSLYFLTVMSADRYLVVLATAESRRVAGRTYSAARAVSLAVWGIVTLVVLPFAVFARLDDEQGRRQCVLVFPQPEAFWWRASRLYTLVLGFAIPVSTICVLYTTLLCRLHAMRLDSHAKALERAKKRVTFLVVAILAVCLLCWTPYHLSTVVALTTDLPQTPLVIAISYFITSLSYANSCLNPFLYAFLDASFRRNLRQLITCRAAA

COc1ccc2sc(-c3ccccc3OC)c(-c3ccc(OCCN(C)C)cc3)c2c1
active: EC50 [1] 10.2 µM | EC50 [2] 10.5 µM | EC50 [3] 5.43 µM | EC50 [4] 13.3 µM | EC50 [5] 20.1 µM

CCOCCCNS(=O)(=O)c1ccc(NC(=O)c2ccc([N+](=O)[O-])cc2Cl)cc1
active: IC50 [6] 0.501 µM | IC50 [7] 1.45 µM

N#CC(c1ccsc1)c1c(Br)cnn(Cc2cccc3ccccc23)c1=O (centres undefined)
active: IC50 [8] 0.417 µM | IC50 [9] 0.417 µM
